Test results: patent publication US20170176436A1, “METHODS (AMACR)” (UNIVERSITY OF BATH, priority 2014, published 2017)

How the values were obtained:
[1] = molecular target: T1, Human AMACR (Homo sapiens, UniProt Q9UHK6); assay: AMACR-catalysed elimination reaction of 3-fluoro-2-methylacyl-CoA esters, monitored by 1H and 19F NMR; assay type: biochemical
T1 construct: inferred only from purification by metal-chelate chromatography; made in house; host or cells: E. coli Rosetta2 (DE3)
T1 sequence (Q9UHK6 1-382): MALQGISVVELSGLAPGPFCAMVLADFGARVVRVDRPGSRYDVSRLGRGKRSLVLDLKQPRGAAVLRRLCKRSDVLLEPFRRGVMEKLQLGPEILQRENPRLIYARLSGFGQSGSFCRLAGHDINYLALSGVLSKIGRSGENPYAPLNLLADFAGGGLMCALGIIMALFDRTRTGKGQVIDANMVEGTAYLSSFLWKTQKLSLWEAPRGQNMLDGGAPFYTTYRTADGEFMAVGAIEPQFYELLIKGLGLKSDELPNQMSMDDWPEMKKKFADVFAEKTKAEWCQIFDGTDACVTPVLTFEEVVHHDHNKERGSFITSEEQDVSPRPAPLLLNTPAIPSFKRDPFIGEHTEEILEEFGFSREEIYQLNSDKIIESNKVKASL
Experimental: (§1) Human AMACR was expressed in E. coli Rosetta2 (DE3) at 22° C. overnight shaking at 220 r.p.m.^1 Cells (˜2 g) were lysed using the ‘one shot’ in ˜30 mL buffer supplemented with 250u benzonase (Novagen) and stirred with 1.5% (w/v) N-lauroyl-sarcosine at 4° C. for 1 hour. Following centrifugation, enzyme was purified by metal-chelate chromatography, dialysed into 20 mM NaH2PO4—NaOH, pH 7.4 and stored at −80° C.^1,2
(§2) Assays were conducted in buffer containing ^2H2O and 100 μM acyl-CoA substrate as previously described, with negative controls contain heat-inactivated enzyme. ±-Fenoprofenoyl-CoA or 2-methyldecanoyl-CoA was used as known substrates.^1,2 Assays were quenched by heating to 50° C. for 10 minutes before ^1H NMR analysis (500.13 MHz). Conversion of substrates was quantified by conversion of the 2-Me doublet at ca. 1.0 p.p.m. into a singlet.^1,2 Kinetic data was analysed as previously described^1,2 and parameters were obtained using SigmaPlot 12 with the Direct Linear Plot^3,4 and non-linear fitting of Michaelis-Menten parameters.
(§3) The 3S and 3R stereoisomers of the 3-fluoro-2-methylacyl-CoA esters were then incubated with AMACR and the reaction was monitored by ^1H and ^19F NMR. Interconversion of 3S and 3R by chiral inversion was expected to be observed. […] The synthetic product compound was produced from the E-acid, which had the alkene proton at 6.92 p.p.m., whilst the Z-isomer has an alkene proton at 6.09 p.p.m. in the ^1H NMR spectrum. The presence of fluoride was observed as a characteristic signal at −120 p.p.m. in the ^19F spectrum. Increasing amounts of the unsaturated product compound and inorganic fluoride were observed upon incubation of either 3S or 3R with AMACR for longer times. This reaction was not observed in negative controls containing heat-inactivated enzyme. […] This observed irreversibility of the elimination reaction probably results from the high levels of hydration of the fluoride anion.

[2] = molecular target: T2, human recombinant AMACR 1A (Homo sapiens, UniProt Q9UHK6); assay: Measurement of inhibitor potency using the elimination assay (1H NMR); assay type: biochemical
T2 construct: made in house
T2 sequence (Q9UHK6 1-382): T1 sequence (Q9UHK6 1-382)
Experimental: Assays were performed as previously described in a total volume of […] in the presence of ^2H2O. using human recombinant AMACR 1A^2. In the following table inhibitor at 100 μM was incubated with enzyme for 10 minutes at room temperature. The reaction was initiated by addition of a stock solution of substrate (2S,3R-3-fluoro-2-methyldecanoyl-CoA) to a final concentration of 100 μM, followed by incubation at 30° C. for 1 hour. The reaction was terminated by heating at ca. 55° C. for 10 minutes. The cooled reaction mixture analysed by ^1H NMR by the appearance of the unsaturated product peak at ca. 1.75 ppm and comparison to the residual substrate peak at 1.1 ppm.^5 Assays were compared to a positive control (no inhibitor) and conversion levels are corrected for levels in negative controls (boiled enzyme). The data in the table is the average of two […] repeats.
Similar assays were also conducted where inhibitor and substrate were added to the enzyme simultaneously.

[3] = molecular target: T1, Human AMACR; assay: AMACR chiral inversion reaction of a known substrate, 1H NMR assay; assay type: biochemical
Experimental: as §1, §2

[4] = molecular target: T2, human recombinant AMACR 1A; assay: Colorimetric assay for AMACR, 96-well plate, absorbance at 354 nm; assay type: biochemical
Experimental: Based on this elimination reaction, a colorimetric assay was developed. […] 2,4-dintrophenol was chosen as the leaving group as the pKa of the acid is similar to that of HF.
The elimination reaction is shown in Reaction Scheme 2 below:
The above assay was transferred into a 96-well plate format with the extent of reaction monitored by absorbance at 354 nm. The reaction was carried out in Na2HPO4—NaOH, pH 7.4 in a total volume of 100 μL containing 8.05 μg (0.17 nmoles) of human recombinant AMACR 1A.
The kinetics assay was carried out in a 96 well plate. Substrate stock solutions (at 2× the final concentration) were prepared by serial dilution in a total volume of 150 μL in phosphate buffer (as already described). This solution (50 μL) was transferred into […], such that three identical wells were prepared. The reaction was initiated by adding a 2× stock solution of enzyme (50 μL per well) to the substrate, mixing and measuring the change in absorbance at 354 nm over a 15 minute time course, with data collected every 60 seconds. The reaction was conducted at ambient room temperature, ca. 25° C. The final concentrations of substrate (in the assay, after adding the enzyme) were: 256.3, 180.9, 113.9, 75.9, 50.6, 33.8, 22.5, 15.0 μM.
Rates were determined by plotting the absorbance vs. time in Microsoft Excel. The initial rate was used before the rate starts to reduce due to substrate depletion and other reasons. The rate in absorbance units/min was derived by fitting a straight line to the points and determining the slope from the y=mx+c equation.
The data was converted into nmol/min/mg using the extinction coefficient,^8 the pathlength (calculated by the plate-reader based on the volume of the reaction; 0.33 cm), and the amount of enzyme determined by UV-visible spectroscopy.^1 Kinetic constants were derived using SigmaPlot 12 with the enzyme kinetics macro function. Fitting assumed a single substrate per active site, two active sites per dimer (one active sites per protein molecule), with three repeats of each rate. […] Kinetic data was also calculated using the Direct Linear Plot^3,4 A similar method (with a different enzyme) has also been described.^10

[5] = substrate: CCCCCCCCC(C)C(=O)SCCNC(=O)CCNC(=O)[C@H](O)C(C)(C)COP(=O)(O)OP(=O)(O)OC[C@H]1O[C@@H](n2cnc3c(N)ncnc32)[C@H](O)[C@@H]1OP(=O)(O)O; assay: AMACR chiral inversion reaction of a known substrate, 1H NMR assay; assay type: biochemical, human; conditions: other: chiral inversion reaction; pH 7.4
Experimental: as §1, §2

[6] = substrate: CCCCCCC[C@@H](F)[C@@H](C)C(=O)SCCNC(=O)CCNC(=O)[C@H](O)C(C)(C)COP(=O)(O)OP(=O)(O)OC[C@H]1O[C@@H](n2cnc3c(N)ncnc32)[C@H](O)[C@@H]1OP(=O)(O)O; assay: AMACR-catalysed elimination reaction of 3-fluoro-2-methylacyl-CoA esters, monitored by 1H and 19F NMR; assay type: biochemical, human; conditions: other: elimination reaction; Direct Linear Plot; 1H NMR; pH 7.4
Experimental: as §1, §2, §3

[7] = elimination reaction, Direct Linear Plot, 1H NMR
[8] = inhibitor and substrate added to the enzyme simultaneously, enzyme 0.12 mg/mL
[9] = inhibitor 100 μM incubated with enzyme 10 minutes at room temperature before substrate, enzyme 0.06 mg/mL, substrate 2S,3R-3-fluoro-2-methyldecanoyl-CoA 100 μM, 30° C. 1 hour
[10] = elimination of 2,4-dinitrophenoxide, pH 7.4, ca. 25° C., absorbance 354 nm

In the case of `CCCCCCC[C@@H](F)[C@H](C)C(=O)SCCNC(=O)CCNC(=O)[C@H](O)C(C)(C)COP(=O)(O)OP(=O)(O)OC[C@H]1O[C@@H](n2cnc3c(N)ncnc32)[C@H](O)[C@@H]1OP(=O)(O)O` [Compound 5, (2S,3R)-3-Fluoro-2-methyldecanoic-CoA], the Km [1, 7] is reported as 21 µM, the Vmax [1, 7] is reported as 96.5 nmol·min^−1·mg polypeptide^−1 and the kcat [1, 7] is reported as 0.0758 s⁻¹.

In the case of `CCCCCCCC[C@@H](C)C(=O)SCCNC(=O)CCNC(=O)[C@H](O)C(C)(C)COP(=O)(O)OP(=O)(O)OC[C@H]1O[C@@H](n2cnc3c(N)ncnc32)[C@H](O)[C@@H]1OP(=O)(O)O` [R-2-methyldecanoyl-CoA], the “Average reduction in conversion” value [2, 8] is reported as 13.6%.

For `COc1ccc2cc(C(C)C(=O)SCCNC(=O)CCNC(=O)C(O)C(C)(C)COP(=O)(O)OP(=O)(O)OCC3OC(n4cnc5c(N)ncnc54)C(O)C3OP(=O)(O)O)ccc2c1` (stereo not shown) [Naproxenoyl-CoA], the “Average reduction in conversion” value [2, 9] was 4.7%.

With `CC(C(=O)SCCNC(=O)CCNC(=O)C(O)C(C)(C)COP(=O)(O)OP(=O)(O)OCC1OC(n2cnc3c(N)ncnc32)C(O)C1OP(=O)(O)O)c1cccc(C(=O)c2ccccc2)c1` (stereo not shown) [Ketoprofenoyl-CoA] the “Average reduction in conversion” value [2, 9] was 4.5%.

In the case of `CC(C)Cc1ccc(C(C)C(=O)SCCNC(=O)CCNC(=O)C(O)C(C)(C)COP(=O)(O)OP(=O)(O)OCC2OC(n3cnc4c(N)ncnc43)C(O)C2OP(=O)(O)O)cc1` (stereo not shown) [Ibuprofenoyl-CoA], the “Average reduction in conversion” value [2, 9] is reported as 14.5% and the “Average reduction in conversion” value [2, 8] is reported as 11%.

For `CCCCCCCCC(C)C(=O)SCCNC(=O)CCNC(=O)[C@H](O)C(C)(C)COP(=O)(O)OP(=O)(O)OC[C@H]1O[C@@H](n2cnc3c(N)ncnc32)[C@H](O)[C@@H]1OP(=O)(O)O` (stereo partly shown) [S-2-methyldecanoyl-CoA], the Vmax [3] was 39.3 nmol·min^−1·mg^−1 polypeptide and the “Average reduction in conversion” value [2, 8] was 7.2%.

With `CCCCCCC[C@@H](F)[C@@H](C)C(=O)SCCNC(=O)CCNC(=O)[C@H](O)C(C)(C)COP(=O)(O)OP(=O)(O)OC[C@H]1O[C@@H](n2cnc3c(N)ncnc32)[C@H](O)[C@@H]1OP(=O)(O)O` [Compound 11, (2R,3R)-3-Fluoro-2-methyldecanoyl-CoA] the Vmax [1, 7] was ~50.6 nmol·min^−1·mg polypeptide^−1 and the “background conversion in negative controls (non-enzymatic elimination)” value ([1]; negative controls with heat-inactivated enzyme) was “significant background conversion”.

In the case of `CC(C(=O)SCCNC(=O)CCNC(=O)C(O)C(C)(C)COP(=O)(O)OP(=O)(O)OCC1OC(n2cnc3c(N)ncnc32)C(O)C1OP(=O)(O)O)c1ccc(-c2ccccc2)c(F)c1` (stereo not shown) [Flurbiprofenoyl-CoA], the “Average reduction in conversion” value [2, 9] is reported as 3.5%.

In the case of `CC(C(=O)SCCNC(=O)CCNC(=O)C(O)C(C)(C)COP(=O)(O)OP(=O)(O)OCC1OC(n2cnc3c(N)ncnc32)C(O)C1OP(=O)(O)O)c1cccc(Oc2ccccc2)c1` (stereo not shown) [Fenoprofenoyl-CoA], the “Average reduction in conversion” value [2, 9] is reported as 14.1%.

With `CC(COc1ccc([N+](=O)[O-])cc1[N+](=O)[O-])C(=O)SCCNC(=O)CCNC(=O)[C@H](O)C(C)(C)COP(=O)(O)OP(=O)(O)OC[C@H]1O[C@@H](n2cnc3c(N)ncnc32)[C@H](O)[C@@H]1OP(=O)(O)O` (mixture of isomers) [colorimetric substrate, racemic 3-(2,4-dinitrophenoxy)-2-methyl-propanoyl-CoA] the “conversion efficiency relative to anti-3-fluoro-2-methyldecanoyl-CoA, as judged by kcat/Km” value [4] was roughly 35%, the “colour produced on incubation with active AMACR” value ([4]; absent in negative controls using heat-inactivated enzyme) was “intense yellow colour” and the Km [4, 10] was 18 µM. For the same molecule, the Vmax [4, 10] was 27.61 nmol/min/mg and the kcat [4, 10] was 0.023 s⁻¹.

B1: Human AMACR (Homo sapiens) (protein)
chain: T1 sequence (Q9UHK6 1-382)
notes: inferred only from purification by metal-chelate chromatography; made in house; host or cells: E. coli Rosetta2 (DE3)
In the case of B1, the Km [5] is reported as 277 µM, the kcat [5] is reported as 0.0310 s⁻¹ and the kcat/Km [5] is reported as 112 M⁻¹ s⁻¹. For the same molecule, the Km [6] was 40 µM, the kcat [6] was 0.0397 s⁻¹ and the kcat/Km [6] was 993 M⁻¹ s⁻¹.
